For experiment [1], the target named is T1, CKIP-1 (casein kinase 2 interacting protein-1) (Homo sapiens, UniProt Q53GL0).
T1 construct: gene PLEKHO1; GST-CKIP-1-C1 (C-terminal leucine zipper region, 345–409)
T1 sequence (Q53GL0 345-409): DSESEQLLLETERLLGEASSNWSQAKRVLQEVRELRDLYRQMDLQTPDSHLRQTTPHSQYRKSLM
Put plainly: SPR (Biacore T200, GST-CKIP-1-C1 captured on CM5 via anti-GST); supported by CETSA in HEK293T cells with Flag-CKIP-1. The format is binding.

Experiment [2] addresses T1, CKIP-1 (casein kinase 2 interacting protein-1). Put plainly: SPR (Biacore T200, GST-CKIP-1-C1 captured on CM5 via anti-GST). It counts as binding. A general note: Surface plasmon resonance follows binding to a sensor surface in real time, without labels.

In paper PMC11354310, “The Discovery of a Specific CKIP-1 Ligand for the Potential Treatment of Disuse Osteoporosis” (International Journal of Molecular Sciences, 2024) one finds Kd data, which are given here for two molecules.

By Kd is commonly meant a measure of binding affinity in units of concentration. A low value points to higher affinity. On to `CNC(=O)c1c(F)ccc(NS(=O)(=O)c2ccc(OC)nc2)c1-c1cc(C(F)(F)F)cc(C(F)(F)F)c1` [C77], for which the Kd in experiment [1] amounted to 0.0271 µM.
`CNC(=O)C1(NC(=O)/C=C/c2cc(I)cc(OC)c2O)CC1` [C170] had a Kd in experiment [2] of 2.17 µM.
